Among the data in BindingDB's records for doi:10.1016/0960-894X(95)00509-R (1995) are Ki values, retold here.

This experiment addresses Platelet-activating factor receptor (Oryctolagus cuniculus). The experiment can be described thus: Tested in vitro for antagonistic activity to displace [3H]PAF from rabbit platelet membrane PAF receptors.
The term Ki denotes a dissociation constant, usually derived from enzyme kinetics or from competition with a known ligand. `O=C(c1ccn2c1CSC2c1cccnc1)c1c[nH]c2cc(OCc3ccccc3)ccc12` (stereo not given) [(6-Benzyloxy-1H-indol-3-yl)-(3-pyridin-3-yl-1H-pyrrolo[1,2-c]thiazol-7-yl)-methanone] showed a Ki of 64 nM. Then `NC(=O)n1cc(C(=O)c2ccn3c2CSC3c2cccnc2)c2ccc(-c3ccc(F)cc3)cc21` (stereo not given) [6-(4-Fluoro-phenyl)-3-(3-pyridin-3-yl-1H-pyrrolo[1,2-c]thiazole-7-carbonyl)-indole-1-carboxylic acid amide], with 6 nM; and `CN(C)C(=O)n1cc(C(=O)c2ccn3c2CSC3c2cccnc2)c2ccc(Sc3ccc(F)cc3)cc21` (stereo not given) [6-(4-Fluoro-phenylsulfanyl)-3-(3-pyridin-3-yl-1H-pyrrolo[1,2-c]thiazole-7-carbonyl)-indole-1-carboxylic acid dimethylamide], with 17 nM; and `CN(C)C(=O)n1cc(C(=O)c2ccn3c2CSC3c2cccnc2)c2ccc(Oc3ccc(F)cc3)cc21` (stereo not given) [6-(4-Fluoro-phenoxy)-3-(3-pyridin-3-yl-1H-pyrrolo[1,2-c]thiazole-7-carbonyl)-indole-1-carboxylic acid dimethylamide], with 1.7 nM. For `CN(C)C(=O)n1cc(C(=O)c2ccn3c2CSC3c2cccnc2)c2ccccc21` (stereo not given) [3-(3-Pyridin-3-yl-1H-pyrrolo[1,2-c]thiazole-7-carbonyl)-indole-1-carboxylic acid dimethylamide] the value was 95 nM. Then `CN(C)C(=O)n1cc(C(=O)c2ccn3c2CSC3c2cccnc2)c2ccc(Cl)cc21` (stereo not given) [6-Chloro-3-(3-pyridin-3-yl-1H-pyrrolo[1,2-c]thiazole-7-carbonyl)-indole-1-carboxylic acid dimethylamide], with 89 nM; and `CC(C)(C)OC(=O)n1cc(C(=O)c2ccn3c2CSC3c2cccnc2)c2ccccc21` (stereo not given) [3-(3-Pyridin-3-yl-1H-pyrrolo[1,2-c]thiazole-7-carbonyl)-indole-1-carboxylic acid tert-butyl ester], with 110 nM.

Compound `CN(C)C(=O)n1cc(C(=O)c2ccn3c2CSC3c2cccnc2)c2ccc(OCc3ccccc3)cc21` (stereo not given) [6-Benzyloxy-3-(3-pyridin-3-yl-1H-pyrrolo[1,2-c]thiazole-7-carbonyl)-indole-1-carboxylic acid dimethylamide] had a Ki of 17 nM. Against the preceding compound, the Ki is about 6.5-fold lower. For `O=C(c1ccn2c1CSC2c1cccnc1)c1c[nH]c2cc(-c3ccc(F)cc3)ccc12` (stereo not given) [[6-(4-Fluoro-phenyl)-1H-indol-3-yl]-(3-pyridin-3-yl-1H-pyrrolo[1,2-c]thiazol-7-yl)-methanone] the value was 75 nM; for `CCNC(=O)n1cc(C(=O)c2ccn3c2CSC3c2cccnc2)c2ccc(-c3ccc(F)cc3)cc21` (stereo not given) [6-(4-Fluoro-phenyl)-3-(3-pyridin-3-yl-1H-pyrrolo[1,2-c]thiazole-7-carbonyl)-indole-1-carboxylic acid ethylamide], 19 nM. For `CN(C)C(=O)n1cc(C(=O)c2ccn3c2CSC3c2cccnc2)c2ccc(-c3ccccc3)cc21` (stereo not given) [6-Phenyl-3-(3-pyridin-3-yl-1H-pyrrolo[1,2-c]thiazole-7-carbonyl)-indole-1-carboxylic acid dimethylamide] the value was 23 nM; for `CN(C)C(=O)n1cc(C(=O)c2ccn3c2CSC3c2cccnc2)c2ccc(Cc3ccccc3)cc21` (stereo not given) [6-Benzyl-3-(3-pyridin-3-yl-1H-pyrrolo[1,2-c]thiazole-7-carbonyl)-indole-1-carboxylic acid dimethylamide], 13 nM. For `O=C(c1ccn2c1CSC2c1cccnc1)c1c[nH]c2ccc(OCc3ccccc3)cc12` (stereo not given) [(5-Benzyloxy-1H-indol-3-yl)-(3-pyridin-3-yl-1H-pyrrolo[1,2-c]thiazol-7-yl)-methanone], the Ki was 180 nM. `O=C(c1ccn2c1CSC2c1cccnc1)c1c[nH]c2c(OCc3ccccc3)cccc12` (stereo not given) [(7-Benzyloxy-1H-indol-3-yl)-(3-pyridin-3-yl-1H-pyrrolo[1,2-c]thiazol-7-yl)-methanone] had a Ki of 90 nM.

For `NNC(=O)n1cc(C(=O)c2ccn3c2CSC3c2cccnc2)c2ccc(-c3ccc(F)cc3)cc21` (stereo not given) [6-(4-Fluoro-phenyl)-3-(3-pyridin-3-yl-1H-pyrrolo[1,2-c]thiazole-7-carbonyl)-indole-1-carboxylic acid hydrazide], the inhibitory constant (Ki) was 25 nM. For `O=C(c1ccn2c1CSC2c1cccnc1)c1c[nH]c2cccc(O)c12` (stereo not given) [(4-Hydroxy-1H-indol-3-yl)-(3-pyridin-3-yl-1H-pyrrolo[1,2-c]thiazol-7-yl)-methanone] the value was 327 nM; for `O=C(c1ccn2c1CSC2c1cccnc1)c1cn(C(=O)N2CCOCC2)c2ccccc12` (stereo not given) [Morpholin-4-yl-[3-(3-pyridin-3-yl-1H-pyrrolo[1,2-c]thiazole-7-carbonyl)-indol-1-yl]-methanone], 225 nM. `Cn1cc(C(=O)c2ccn3c2CSC3c2cccnc2)c2ccc(-c3ccc(F)cc3)cc21` (stereo not given) [[6-(4-Fluoro-phenyl)-1-methyl-1H-indol-3-yl]-(3-pyridin-3-yl-1H-pyrrolo[1,2-c]thiazol-7-yl)-methanone] came in with a Ki of 7 nM. Then `CN(C)C(=O)Cn1cc(C(=O)c2ccn3c2CSC3c2cccnc2)c2ccc(-c3ccc(F)cc3)cc21` (stereo not given) [2-[6-(4-Fluoro-phenyl)-3-(3-pyridin-3-yl-1H-pyrrolo[1,2-c]thiazole-7-carbonyl)-indol-1-yl]-N,N-dimethyl-acetamide], with 0.7 nM; and `CN(C)C(=O)n1cc(C(=O)c2ccn3c2CSC3c2cccnc2)c2cc(OCc3ccccc3)ccc21` (stereo not given) [5-Benzyloxy-3-(3-pyridin-3-yl-1H-pyrrolo[1,2-c]thiazole-7-carbonyl)-indole-1-carboxylic acid dimethylamide], with 120 nM.
